The source of these data is US9072777B2, “Method for screening substance having proangiogenic effect” (priority 2005, dated 2015).

Ends that are not written are not given here.

Assay [1] has as its system cerebral edema model mice. Nature of the assay: cerebral edema model (cold injury of dura mater). Particulars: AM administration group vs control. The assay is classed as in vivo, mouse. As to the method:
Mice were anesthetized with nembutal and then skull was opened. Injury was provided by contacting a cylinder cooled to −80° C. against dura mater. After 24 hours, mice were sacrificed, brain was removed and the increasing in the weight of the brain due to the cerebral edema was quantified. In the similar cerebral edema model, fluorescent-labeled dextran was injected into the tail vein and the leakage of the fluorescence dye out of the vessel in brain was quantified using fluorescent plate reader.

In assay [2] the test system is lower extremity ischemia model mouse. Put plainly: lower extremity ischemia model mouse (laser Doppler perfusion imaging, wound healing, new vessels). It counts as in vivo. As to the method: Mouse lower extremity ischemia model was prepared as follows.
C3H mice were anesthetized with nembutal and then skin of one side of lower extremity was cut open to expose artery of lower extremity. The lower extremity ischemia model was prepared by ligating artery of lower extremity at upper groin and lower popliteal region and resecting the artery of lower extremity at this region. The recovery of the blood flow after the resection of the artery of lower extremity by the development of the collateral circulation was observed.
C3H mice at the age of 6 months were divided into three groups; AM administration group, VEGF administration group, and control group. Mice of AM treatment group was continuously injected with AM (50 ng/h) by osmotic pump. Each mouse of VEGF administration group was injected with 20 μl of VEGF (5 ng/h) intramuscularly and used as positive control. Mice of control group were injected with PBS continuously.
The blood flow in the lower extremity ischemia model was monitored using laser Doppler perfusion imaging. The effect of AM on wound healing was also investigated. […] In FIG. 4, almost no blood flow in ischemic lower limb was observed on the first day of ischemic model preparation ([…] day 0).
The increasing of the number of new intramuscular blood vessel at the side of operation was also observed (FIG. 6, panel B). In contrast, in AM heterozygous knockout mice (AM +/−), and the mice administered with “AM 22-52”, a truncated form of AM consisting of from 22 to 52 amino acid sequence (AM antagonist), suppression of the recovery of blood flow and the angiogenesis were observed (FIG. 7). In FIG. 7, the mark “**” denotes p<0.01. Hereinafter the same.

In assay [3] the test system is VEGF. Nature of the assay: expression of VEGF in femoral muscle of lower extremity ischemia model mouse, Western Blot. It counts as in vivo. The settings on record: AM administration group vs control. The protocol: The lower extremity ischemia model mouse prepared as in Example 2 was sacrificed by cervical dislocation, then femoral muscle sampled, from which protein was extracted and Western Blot analysis was conducted.
In general terms: A western blot detects proteins with antibodies after separation by electrophoresis.

In assay [4] the test system is angiogenesis enhancing factors and adhesion factor gene expression. Nature of the assay: gene array of sample from lower extremity ischemia model mice. The assay is classed as in vivo, mouse. The text has this:
In this Example, the gene group of which expression level changes by the administration of AM were monitored by gene array using the sample form the lower extremity ischemia model mice

A further assay has as its system Akt. Put plainly: phosphorylation of Akt in HUVEC, Western Blot. The assay is classed as cell-based, human. Particulars: AM 10^-11 to 10^-7 M in combination with VEGF 10 ng/ml. The protocol: (§1) Single administration of AM (10^−11 to 10^−7 M) alone, or administration of AM in combination with VEGF (10 ng/ml) to the cultivating system of human umbilical vein endothelial cell was carried out. Protein was extracted from cells and the phosphorylation of Akt and eNOS was investigated using Western Blot analysis.

The test system of another assay is eNOS. Nature of the assay: phosphorylation of eNOS in HUVEC, Western Blot. It counts as cell-based, human. The settings on record: AM 10^-11 to 10^-7 M in combination with VEGF 10 ng/ml. As to the method:
as §1

In a further assay the test system is claudin 5. Nature of the assay: claudin 5 gene expression in HUVEC cultured on Matrigel, real-time PCR. The assay is classed as cell-based, human. As to the method: (1) Adrenomedullin was administered exogenously to HUVEC cultured on Matrigel. After stimulating for 24 hours, the cell was recovered and RNA was extracted. The expression of claudin 5 gene was investigated using real-time PCR technique.
(2) “AM 22-52”, a truncated form of AM consisting of from 22 to 52 amino acid sequence was administered to HUVEC cultured on Matrigel to investigate the gene expression level.
For orientation: Quantitative PCR measures a nucleic acid by following its amplification.

The subject of assay [5] is AM heterozygous knockout mice (AM +/-). Nature of the assay: rescue test using AM heterozygous knockout mice (lower extremity ischemia model). The assay is classed as in vivo, mouse. Particulars: for formation of new blood vessel: AM +/- mice supplemented with AM or VEGF; for recovery of blood flow / angiogenesis effect: AM +/- mice supplemented with exogenous AM or VEGF. The protocol: Rescue test using AM knockout mouse may also be carried out. In the lower-extremity ischemia model prepared from the AM knockout mouse with decreased expression level of AM, angiogenesis potency decreases. When AM is administered exogenously to the AM knockout mouse, recovery of angiogenesis potency may be observed. This is referred to as “rescue test”.
In this example, The lower extremity ischemia model mice were prepared as in Example 2, and the recovery of blood flow of the AM heterozygous knockout mice (AM +/−) supplemented with exogenous AM or VEGF.

In assay [6] the test system is VEGF. Put plainly: expression of VEGF in human artery endothelial cell (HAEC), RT-PCR. The assay is classed as cell-based. The settings on record: AM concentration and stimulation time dependence. The protocol: Also, the expression of VEGF in human artery endothelial cell (HAEC) was analyzed using RT-PCR.
The test system of a further assay is HUVEC. Put plainly: in vitro vascular permeability assay (FITC-dextran through HUVEC monolayer). It counts as cell-based, human. The protocol:
In vitro vascular permeability assay is an assay in which the cells are cultured in the insert placed on the culture plate with semi-permeable membrane at the bottom to form monolayer, then the substance is added to the insert and the extent of permeability into the plate through the cell monolayer is measured. In particular, the extent of permeability is measured by addition of the substance for the vascular permeability test such as AM, followed by the addition of dextran labeled with FITC onto the cell monolayer, allowing it to permeate through the monolayer, and the fluorescence intensity in the plate well solution is measured. Thus, the suppression activity of AM on the vascular permeability may be investigated.
An insert made of semi-permeable membrane was placed on a cultivation plate, in which HUVEC was cultured so that the cells formed monolayer (EBM-2 medium, 5% CO2, 37° C., 24 hours). The extent of permeability was measured by addition of the substance for the vascular permeability test to the plate on which cell were cultured, followed by the addition of dextran labeled with FITC onto the cell monolayer, allowing it to permeate through the monolayer, and the fluorescence intensity in the plate well solution was measured.

Assay [7] deals with lower extremity edema model mice. Put plainly: lower extremity edema model mice by topical injection of carrageenan. The assay is classed as in vivo, mouse. Particulars: continuous administration of AM; carrageenan to pad of foot. The protocol:
Transient edema may be prepared by topical injection of carrageenan, a hyperosmotic substance to pad of foot of mouse. Magnitude of the edema thus formed was evaluated by measuring the thickness of feet pad from time to time.

In another assay the test system is Flk-1 knockout mice. Put plainly: rescue test using Flk-1 knockout mice (lower extremity ischemia model). The assay is classed as in vivo, mouse. The protocol: On the other hand, supplementation of AM to Flk-1, a receptor of VEGF knockout mice was conducted as a rescue test opposite to that mentioned above. The recovery of blood flow in Flk-1 knockout mice decreased in comparison with wild-type.

Setting [8] is: gene array, AM administration group vs control group.
[9] abbreviates: mice administered with AM 22-52.

Regarding Adrenomedullin [AM], the “vascular permeability in brain (leakage of fluorescent-labeled dextran)” value in assay [1] was “suppressed in comparison with control”. Moreover, the weight of brain entry in assay [1] (24 hours after injury) was “decreased”. Further, the “wound, amputation and shortening of lower limb” value in assay [2] (AM 50 ng/h, vs control group) was “Reduction of wound and decreasing in the number of amputation and shortening of lower limb”. The “percentage of the mice in which the lower limb is normal or with slight wound” value in assay [2] (AM administration group) is on record as “more than 80%”. Further, in [2] (AM administration group vs control group), the “number of mice in which the lower limb was amputated or with severe wound” value is listed as “smaller than that in the control group”. In addition, the “blood flow in ischemic lower limb” value in assay [2] (Day 7 and 12 after ischemia, AM 50 ng/h) is recorded as “recovery of blood flow was observed”. Moreover, in assay [2] (administration of AM), the “number of new intramuscular blood vessel at the side of operation” value was “increasing” and the “recovery of the blood flow, ratio ischemic side (L) / non-ischemic side (R) (L/R)” value was “significant recovery in the blood flow”. Besides, in assay [2] (laser Doppler perfusion imaging, AM 50 ng/h continuously by osmotic pump, C3H mice), the “recovery of the blood flow of lower extremity” value is recorded as “Improvement in the recovery of the blood flow”. Further, the “expression level of VEGF” value in the assay on VEGF [3] is “increased from the early stage after the ischemia operation (day 1)”. The “expression levels of eNOS, Osteopontin, VEGF, VCAM-1 and the like” value in assay [4] (administration of AM in comparison with control group) is recorded as “increased”. In addition, in [4] (setting [8]), the “COL18A1 expression, AM(+)/Control” value was 2.72; the “Osteopontin expression, AM(+)/Control” value was found to be 1.93; the “PAI-1 expression, AM(+)/Control” value amounted to 1.79; the “PDGF-A expression, AM(+)/Control” value came to 5.60. Moreover, in assay [4] (setting [8]), the “PDGFRβ expression, AM(+)/Control” value was found to be 1.58; the “TGFβ expression, AM(+)/Control” value came to 4.04; the “Tie-2 expression, AM(+)/Control” value amounted to 3.61; the “VCAM-1 expression, AM(+)/Control” value stood at 3.65. Further, in assay [4] (setting [8]), the “VEGF expression, AM(+)/Control” value was found to be 1.50; the “eNOS expression, AM(+)/Control” value was 1.71; the “β-glycan expression, AM(+)/Control” value is on record as 6.76. In addition, the “phosphorylation of Akt by VEGF” value with Akt was “enhanced”. In the assay with eNOS, the “phosphorylation of eNOS by VEGF” value was “enhanced”. Moreover, the “expression of claudin 5” value with claudin 5 is recorded as “enhanced”. Besides, in assay [5], the “formation of new blood vessel” value is given as “recovered to the level comparable to the wild-type” and the “recovery of blood flow / angiogenesis effect” value is “recovery of the angiogenesis effect”. The “expression level of VEGF” value with VEGF [6] is “increased concentration- and time dependently”. Moreover, the “vascular permeability (FITC-dextran through cell monolayer)” value in the assay with HUVEC (AM in addition to VEGF) was “suppressed the enhancement of vascular permeability by VEGF”. The “vascular permeability (FITC-dextran through cell monolayer)” value in the assay on HUVEC (substance alone) is given as “suppression of vascular permeability”. For the same substance, the “formation of edema at lower limb (thickness of feet pad)” value in [7] was “suppressed”. For the same substance, in the assay with Flk-1 knockout mice (exogenous AM to Flk-1 knockout mice), the “recovery of blood flow” value is “no recovery of blood flow”. In the assay with Flk-1 knockout mice (exogenous AM to wild-type mice), the “recovery of blood flow” value is “enhance the recovery of blood flow”.

Turning to “vascular endothelial growth factor [VEGF]”, in [5], the “formation of new blood vessel” value is on record as “recovered to the level comparable to the wild-type” and the “recovery of blood flow / angiogenesis effect” value is listed as “recovery of the angiogenesis effect”. Also, the “vascular permeability (FITC-dextran through cell monolayer)” value in the assay on HUVEC (substance alone) is reported as “enhanced vascular permeability”.

In the case of “AM 22-52: a truncated form of AM consisting of from 22 to 52 amino acid sequence (AM antagonist) (TVQKLAHQIYQFTDKDKDNVAPRSKISPQGY; ends and bridges not checked; UniProt P35318 116-146, looked up, fragment) [reference compound]”, in [2] (setting [9]), the angiogenesis entry is “suppression” and the “recovery of blood flow” value was “suppression”. Further, the “expression of claudin 5” value in the assay with claudin 5 is given as “decreased”.
